Measured values as given in the NIST ThermoML archive (doi:10.1021/acs.jced.7b00002).

Assay: xn = mol fraction of the nth substance listed
Conditions: 97.6 kPa, Liquid; for viscosity: Capillary tube (Ostwald / Ubbelohde) method; for mass density: Vibrating tube method

CCCCCCCC[n+]1ccn(C)c1.[Cl-] [1-methyl-3-octylimidazolium chloride] + CC(=O)N(C)C
Conditions	mass density [kg/m3]	viscosity [mPa·s]
303.15 K, x1 = 0.139	958.09	3.63
303.15 K, x1 = 0.273	975.02	14.75
303.15 K, x1 = 0.361	981.93	32.45
303.15 K, x1 = 0.468	988.64	92.29
303.15 K, x1 = 0.602	994.87	288.58
303.15 K, x1 = 0.786	1001.37	1049.5
303.15 K, x1 = 0.877	1003.75	1865.4
303.15 K, x1 = 1	1006.2	7339.7
308.15 K, x1 = 0.139	954.07	3.26
308.15 K, x1 = 0.273	971.38	12.52
308.15 K, x1 = 0.361	978.45	26.51
308.15 K, x1 = 0.468	985.3	70.68
308.15 K, x1 = 0.602	991.72	210.24
308.15 K, x1 = 0.786	998.36	714.83
308.15 K, x1 = 0.877	1000.8	1255
308.15 K, x1 = 1	1003.33	4272.9
313.15 K, x1 = 0.139	950.12	2.94
313.15 K, x1 = 0.273	967.74	10.65
313.15 K, x1 = 0.361	974.97	21.93
313.15 K, x1 = 0.468	981.99	55.22
313.15 K, x1 = 0.602	988.57	156.62
313.15 K, x1 = 0.786	995.34	502.24
313.15 K, x1 = 0.877	997.86	853.26
313.15 K, x1 = 1	1000.48	2766.9
318.15 K, x1 = 0.139	946.26	2.65
318.15 K, x1 = 0.273	964.11	9.2
318.15 K, x1 = 0.361	971.5	18.32
318.15 K, x1 = 0.468	978.68	44.2
318.15 K, x1 = 0.602	985.42	119.22
318.15 K, x1 = 0.786	992.37	358.94
318.15 K, x1 = 0.877	994.92	594.67
318.15 K, x1 = 1	997.64	1788.6
323.15 K, x1 = 0.139	942.47	2.42
323.15 K, x1 = 0.273	960.49	8.02
323.15 K, x1 = 0.361	968.04	15.51
323.15 K, x1 = 0.468	975.38	35.89
323.15 K, x1 = 0.602	982.29	92.49
323.15 K, x1 = 0.786	989.43	263.25
323.15 K, x1 = 0.877	992	425.36
323.15 K, x1 = 1	994.82	1198.7
328.15 K, x1 = 0.139	938.72	2.21
328.15 K, x1 = 0.273	956.87	7.04
328.15 K, x1 = 0.361	964.59	13.24
328.15 K, x1 = 0.468	972.09	29.51
328.15 K, x1 = 0.602	979.16	72.76
328.15 K, x1 = 0.786	986.49	198.27
328.15 K, x1 = 0.877	989.12	310.37
328.15 K, x1 = 1	992	828.3
333.15 K, x1 = 0.139	934.99	2.04
333.15 K, x1 = 0.273	953.26	6.22
333.15 K, x1 = 0.361	961.14	11.44
333.15 K, x1 = 0.468	968.81	24.7
333.15 K, x1 = 0.602	976.05	58.34
333.15 K, x1 = 0.786	983.55	150.45
333.15 K, x1 = 0.877	986.24	231.3
333.15 K, x1 = 1	989.17	588.69
338.15 K, x1 = 0.139	931.23	1.88
338.15 K, x1 = 0.273	949.65	5.53
338.15 K, x1 = 0.361	957.71	9.98
338.15 K, x1 = 0.468	965.54	20.81
338.15 K, x1 = 0.602	972.96	47.46
338.15 K, x1 = 0.786	980.62	116.53
338.15 K, x1 = 0.877	983.37	176.46
338.15 K, x1 = 1	986.38	426.28
343.15 K, x1 = 0.139	927.34	1.74
343.15 K, x1 = 0.273	946.05	4.96
343.15 K, x1 = 0.361	954.28	8.73
343.15 K, x1 = 0.468	962.28	17.72
343.15 K, x1 = 0.602	969.87	38.89
343.15 K, x1 = 0.786	977.69	91.77
343.15 K, x1 = 0.877	980.49	136.74
343.15 K, x1 = 1	983.63	316.66
348.15 K, x1 = 0.139	923.35	1.62
348.15 K, x1 = 0.273	942.44	4.47
348.15 K, x1 = 0.361	950.85	7.7
348.15 K, x1 = 0.468	959.03	15.26
348.15 K, x1 = 0.602	966.79	32.38
348.15 K, x1 = 0.786	974.78	73.67
348.15 K, x1 = 0.877	977.62	107.08
348.15 K, x1 = 1	980.88	237.14
353.15 K, x1 = 0.139	919.35	1.51
353.15 K, x1 = 0.273	938.85	4.05
353.15 K, x1 = 0.361	947.43	6.85
353.15 K, x1 = 0.468	955.78	13.2
353.15 K, x1 = 0.602	963.72	27.28
353.15 K, x1 = 0.786	971.87	59.69
353.15 K, x1 = 0.877	974.77	85.14
353.15 K, x1 = 1	978.13	181.41
